Laboratory results published in patent US12630529B2, “GCN2 modulator compounds” (ALESTA THERAPEUTICS BV, priority 2020, dated 2026).

How the values were obtained:
[1] = system: CHOP (DDIT3) reporter; assay: GCN2-induction of CHOP and apoptosis in 3T3 fibroblasts with CHOP (DDIT3) reporter construct; type: cell-based, murine; details: for induction of CHOP (mCherry): murine 3T3 WT and GCN2 knockout CHOP reporter cells, stress inducer alone
Description: The CHOP construct comprised the […] (UTR) of mouse DDIT3 mRNA fused to a sequence encoding the fluorescent protein mCherry.
Cells were seeded at 5,000 cells per well in flat bottom 96-well plates in 100 μL DMEM low glucose media without phenol red, and supplemented with 10% FBS and 2 mM glutamine. After 24 hours, the exemplary compounds, and either tunicamycin, halofuginone, or histidinol, were added together with 100 nM of fluorescent apoptosis stain (YO-PRO™-1 Iodide; Thermo Fisher) to detect apoptotic cells. Cells were placed in a live-cell imaging and analysis platform (IncuCyte ZOOM®; Essenbio) set up in a humidified incubator at 37° C. and the plates were scanned every 4 hours for up 120 hours, at 10× magnification, to determine cell confluence and cell death. Experiments were performed in duplicate with 3 images collected per well, and analyzed using live-cell imaging and analysis software (IncuCyte ZOOM® 2018A software; Essenbio).

[2] = biological target: T1, GCN2 (Mus musculus, UniProt Q9QZ05); assay: GCN2 inhibition cell-based assay (P-GCN2 Western blot in Neuro 2a cells); details: amino acid deprived media (DMEM lacking L-cysteine and methionine), 3 hours
T1 construct: endogenous in cells; host or cells: Neuro 2a (N2a)
T1 sequence (Q9QZ05 whole entry): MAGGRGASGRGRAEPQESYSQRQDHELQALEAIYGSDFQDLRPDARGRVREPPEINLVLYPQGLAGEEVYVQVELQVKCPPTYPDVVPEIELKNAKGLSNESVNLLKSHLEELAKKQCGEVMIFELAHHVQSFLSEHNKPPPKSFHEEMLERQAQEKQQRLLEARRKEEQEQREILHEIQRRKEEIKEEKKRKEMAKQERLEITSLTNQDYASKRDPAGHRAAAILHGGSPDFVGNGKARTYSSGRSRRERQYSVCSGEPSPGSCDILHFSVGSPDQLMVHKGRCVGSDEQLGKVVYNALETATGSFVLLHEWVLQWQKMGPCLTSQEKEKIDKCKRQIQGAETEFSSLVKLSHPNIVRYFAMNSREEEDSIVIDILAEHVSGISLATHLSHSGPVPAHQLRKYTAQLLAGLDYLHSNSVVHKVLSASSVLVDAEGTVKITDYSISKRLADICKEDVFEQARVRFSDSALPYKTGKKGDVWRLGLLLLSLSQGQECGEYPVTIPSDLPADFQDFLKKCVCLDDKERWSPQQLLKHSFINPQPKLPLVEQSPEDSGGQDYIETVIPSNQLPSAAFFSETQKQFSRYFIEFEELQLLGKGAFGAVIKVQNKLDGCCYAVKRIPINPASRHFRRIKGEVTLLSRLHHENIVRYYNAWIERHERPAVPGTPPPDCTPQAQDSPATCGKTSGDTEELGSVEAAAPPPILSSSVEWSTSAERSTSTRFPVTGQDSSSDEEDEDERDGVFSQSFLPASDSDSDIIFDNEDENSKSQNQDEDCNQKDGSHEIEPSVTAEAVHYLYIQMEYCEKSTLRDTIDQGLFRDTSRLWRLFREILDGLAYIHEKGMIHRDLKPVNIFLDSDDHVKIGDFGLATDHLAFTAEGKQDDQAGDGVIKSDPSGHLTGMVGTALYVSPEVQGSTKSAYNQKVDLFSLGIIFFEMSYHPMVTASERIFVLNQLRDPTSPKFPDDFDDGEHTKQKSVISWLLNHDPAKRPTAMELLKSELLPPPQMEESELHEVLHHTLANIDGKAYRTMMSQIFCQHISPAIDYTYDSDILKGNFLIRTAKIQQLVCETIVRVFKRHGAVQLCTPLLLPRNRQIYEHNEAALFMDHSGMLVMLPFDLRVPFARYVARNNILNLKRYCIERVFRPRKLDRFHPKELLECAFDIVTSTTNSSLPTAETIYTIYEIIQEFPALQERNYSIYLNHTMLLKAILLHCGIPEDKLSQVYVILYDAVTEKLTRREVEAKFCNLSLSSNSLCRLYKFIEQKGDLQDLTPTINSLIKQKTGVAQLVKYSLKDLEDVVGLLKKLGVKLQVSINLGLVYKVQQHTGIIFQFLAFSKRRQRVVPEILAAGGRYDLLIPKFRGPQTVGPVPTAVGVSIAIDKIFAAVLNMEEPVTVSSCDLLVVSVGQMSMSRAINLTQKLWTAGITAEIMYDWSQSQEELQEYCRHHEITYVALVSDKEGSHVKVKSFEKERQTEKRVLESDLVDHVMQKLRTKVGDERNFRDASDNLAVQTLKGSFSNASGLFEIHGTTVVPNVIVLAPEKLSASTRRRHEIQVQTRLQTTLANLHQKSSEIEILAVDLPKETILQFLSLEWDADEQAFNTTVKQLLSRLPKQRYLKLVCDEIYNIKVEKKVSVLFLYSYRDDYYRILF
Description: Neuro 2a cells (N2a) were maintained at 37° C. and 5% CO2 in DMEM/F12 medium (Fisher Scientific) supplemented with 10% fetal bovine serum and 1% penicillin-streptomycin (complete medium). 300,000 cells/well were seeded in flat bottom 6 well plates 48 hours before treatment with the compounds.
Testing compounds were prepared at different concentrations ranging from 10 μM to 0.1 nM on DMEM medium lacking L-cysteine and methionine (DMEM-CM) (Gibco) and supplemented with 1% penicillin-streptomycin. Complete medium was used as control of non-stressed condition. After 48 hours, the medium was removed from each well and 2 mL per well of each treatment was added. Cells were treated for 3 hours at 37° C. and 5% CO2.
After the incubation time, each well was washed with sterile 1×PBS and then 100 μL of ice-cold lysis buffer supplemented with phosphatase and protease inhibitors was added. Lysates were transferred to 1.5 mL tubes and sonicated for 3 min, and total protein amounts were quantified using BCA assay (e.g., BCA Protein Assay Kit; Pierce) according to manufacturer instructions. Equal amount of proteins was loaded on SDS-PAGE gels for electrophoresis and then transferred onto 0.2 µm filter pore PVDF membranes.
Membranes were then blocked in blocking buffer containing 3% BSA/0.1% Tween/1×Tris-buffered saline (TBS) for 1 hour and then incubated overnight at 4° C. with agitation with anti-pGCN2 primary antibody (Abcam ab-75836), diluted 1:1,000 in blocking buffer. […] (Sigma Aldrich) was used as a loading control.
Membranes were then incubated with the corresponding secondary antibody to detect immune-reactive bands using enhanced chemiluminescence (e.g., ECL Western Blotting Substrate Pierce).
Images were acquired (e.g., using Chemidoc™ equipment) and quantitated by densitometry using ImageJ software. IC50 values were determined from a concentration-response curve using GraphPad prism software.
IC50 values from P-GCN2 inhibition assay after induction with amino acid deprived media in the presence of different concentrations of test compounds are shown in Table 2. For IC50 values: +++ refers to <10 nM of test compound; ++ refers to 10 nM to 100 nM of test compound; + refers to 100 nM to 1,000 nM of test compound and − refers to >1,000 nM of test compound.
Under GCN2-mediated stress conditions, resulting from an amino acid deprived medium, GCN2 is generally phosphorylated. Accordingly, inhibition of GCN2 phosphorylation as a result of the test compound indicates inhibition of the GCN2 pathway.

[3] = system: HT29 cells; assay: Growth of tumor spheroids; type: cell-based; details: 64 μM arginine, up to 120 hours, vs untreated spheroids
Description: The growth of tumor spheroids was evaluated following treatment of cells with Compound 1, Compound 2 and Compound 108. Briefly, HT29 cells were seeded at 5,000 cells/well in ultra-low attachment round bottom 96-well plates, in 100 μL SILAC DMEM Flex media without phenol red, supplemented with 10% fetal bovine serum (FBS), 1 g/L glucose, 2 mM glutamine, 220 μM lysine, and 64 μM arginine. The plates were centrifuged for 10 minutes at 125×g and put in a humidified incubator at 37° C. for 3 days before the onset of the experiment to allow spheroids to form.
Three days after seeding, 10 μM Compound 1, 10 μM Compound 2, 10 μM Compound 108 or 10 μM vehicle control (0.1% DMSO), were added together with 100 nM fluorescent apoptosis stain (e.g., YO-PRO™-1 Iodide; Thermo Fisher) to detect apoptotic cells and Nuclear-ID Red DNA Stain (1:100,000; ENZO Life Sciences) to detect live cells. Plates were placed in a live-cell imaging and analysis platform (e.g., IncuCyte ZOOM®; Essenbio) set up in a humidified incubator at 37° C. and scanned every 4 hours for up 120 hours, at 10× magnification, to determine relative spheroid size and cell death. Experiments were performed in quadruplicate and analyzed using live-cell imaging and analysis software (e.g., IncuCyte ZOOM® 2018A software; Essenbio).

[4] = biological target: GCN2 (Homo sapiens, UniProt Q9P2K8); assay: GCN2 enzyme inhibition assay (Reaction Biology EIF2AK4/GCN2 kinase assay); type: biochemical; design: purchased Reaction Biology Corp; details: human GCN2 enzyme activity, 10 μM ATP, 20 μM peptide substrate
Chain of GCN2 (Homo sapiens, UniProt Q9P2K8) (Q9P2K8 whole entry): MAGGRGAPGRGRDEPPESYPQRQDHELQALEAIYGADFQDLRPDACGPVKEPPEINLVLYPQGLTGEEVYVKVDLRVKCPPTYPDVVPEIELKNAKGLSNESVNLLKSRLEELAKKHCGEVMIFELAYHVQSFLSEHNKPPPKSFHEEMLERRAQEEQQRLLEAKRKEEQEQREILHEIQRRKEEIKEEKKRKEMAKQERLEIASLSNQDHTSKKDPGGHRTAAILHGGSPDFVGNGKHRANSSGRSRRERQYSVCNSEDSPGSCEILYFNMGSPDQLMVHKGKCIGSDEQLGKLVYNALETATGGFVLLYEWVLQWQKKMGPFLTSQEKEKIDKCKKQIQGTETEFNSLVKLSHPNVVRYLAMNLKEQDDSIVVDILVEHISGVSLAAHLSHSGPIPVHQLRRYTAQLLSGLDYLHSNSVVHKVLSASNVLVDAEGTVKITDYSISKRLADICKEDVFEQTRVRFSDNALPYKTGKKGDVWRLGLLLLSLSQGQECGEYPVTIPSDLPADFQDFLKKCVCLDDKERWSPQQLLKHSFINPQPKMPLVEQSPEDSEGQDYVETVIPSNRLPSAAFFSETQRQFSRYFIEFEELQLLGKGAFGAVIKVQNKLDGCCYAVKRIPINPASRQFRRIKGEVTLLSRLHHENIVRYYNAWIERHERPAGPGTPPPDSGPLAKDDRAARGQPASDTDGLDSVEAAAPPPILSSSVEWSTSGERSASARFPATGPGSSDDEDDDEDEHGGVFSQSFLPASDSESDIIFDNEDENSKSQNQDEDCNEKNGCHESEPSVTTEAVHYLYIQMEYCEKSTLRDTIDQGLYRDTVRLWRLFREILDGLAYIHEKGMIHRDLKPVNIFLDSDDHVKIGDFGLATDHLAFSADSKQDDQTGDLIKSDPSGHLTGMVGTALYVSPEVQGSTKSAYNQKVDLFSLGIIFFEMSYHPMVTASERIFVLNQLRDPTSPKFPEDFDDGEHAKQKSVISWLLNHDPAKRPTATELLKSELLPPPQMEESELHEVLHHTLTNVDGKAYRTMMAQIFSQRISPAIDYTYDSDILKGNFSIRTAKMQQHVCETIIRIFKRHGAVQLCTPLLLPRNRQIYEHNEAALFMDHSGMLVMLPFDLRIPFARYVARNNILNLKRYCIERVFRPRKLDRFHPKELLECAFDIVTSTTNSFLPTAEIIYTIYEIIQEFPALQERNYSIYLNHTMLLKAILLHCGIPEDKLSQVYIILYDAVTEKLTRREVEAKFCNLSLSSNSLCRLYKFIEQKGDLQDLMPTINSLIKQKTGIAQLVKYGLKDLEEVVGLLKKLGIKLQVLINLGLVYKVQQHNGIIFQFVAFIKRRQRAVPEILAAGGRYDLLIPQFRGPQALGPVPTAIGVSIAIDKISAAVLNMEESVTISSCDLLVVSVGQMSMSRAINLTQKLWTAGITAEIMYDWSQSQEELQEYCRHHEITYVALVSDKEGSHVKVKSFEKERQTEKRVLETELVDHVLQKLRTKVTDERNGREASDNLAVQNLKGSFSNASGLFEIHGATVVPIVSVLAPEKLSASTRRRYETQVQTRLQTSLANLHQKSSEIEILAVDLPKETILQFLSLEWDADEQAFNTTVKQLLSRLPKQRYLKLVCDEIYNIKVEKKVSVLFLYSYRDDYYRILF
Description: In order to validate the above results, human GCN2 enzyme activity was measured in Reaction Biology Corp (EIF2AK4/GCN2 kinase assay). Compounds were tested in 5-dose IC50 mode for non-active compounds and 10-dose IC50 mode for active compounds with 3-fold serial dilution starting at 30 μM and 0.1 μM respectively. Control compound Staurosporine was tested in 10-dose IC50 mode with 4-fold serial dilution starting at 20 μM. Reactions were carried out at 10 μM ATP using 20 μM peptide substrate [GRSRSRSRSR]. For IC50 values: +++ refers to <10 nM of test compound; ++ refers to 10 nM to 100 nM of test compound; + refers to 100 nM to 1,000 nM of test compound and − refers to >1,000 nM of test compound.

IC50 [2] [µM] | Compound | other results
< 0.01 | Nc1ncc2cc(-c3c(F)ccc(NS(=O)(=O)c4cc(Cl)cc(CO)c4Cl)c3F)ccc2n1 [Compound 108] | GCN2 activation / GCN2-induced CHOP activation ([1]; murine 3T3 CHOP (mCherry) reporter fibroblasts, increasing concentrations, in the presence of halofuginone or histidinol): reduced GCN2 activation; apoptosis induced by halofuginone ([1]; murine 3T3 WT cells, co-treatment with halofuginone): effectively inhibited apoptosis; late-stage apoptosis induced by histidinol ([1]; murine 3T3 WT cells, co-treatment with histidinol): increased late-stage apoptosis; spheroid size and viability [3]: relative reduction in spheroid size and viability in a dose-dependent manner
> 1 | COc1ncc(Cl)cc1C(=O)Nc1ccc(F)c(C#Cc2cnc(N)nc2)c1F [Compound 3] | IC50 [4]: > 1 µM
> 1 | Nc1ncc2ccc(-c3c(F)ccc(NS(=O)(=O)c4cc(Cl)ccc4Cl)c3F)cc2n1 [Compound 5] | IC50 [4]: > 1 µM
> 1 | COc1ncc(Cl)cc1S(=O)(=O)Nc1ccc(F)c(-c2ccc3cnc(N)nc3c2)c1F [Compound 6] | IC50 [4]: > 1 µM
> 1 | COc1ncc(Cl)cc1S(=O)(=O)Nc1ccc(F)c(-c2cccc3nc(N)ncc23)c1F [Compound 45] | –
0.1 to 1 | Nc1ncc2cc(-c3c(F)ccc(NS(=O)(=O)c4ccc(F)c(C(F)(F)F)c4)c3F)ccc2n1 [Compound 136] | –
> 1 | COc1ncc(Cl)cc1-c1nnc(-c2ccc(F)c(C#Cc3cnc(N)nc3)c2F)o1 [Compound 7] | IC50 [4]: > 1 µM
< 0.01 | COc1ncc(Cl)cc1S(=O)(=O)Nc1ccc(F)c(-c2ccc3nc(N[C@H](C)CO)ncc3c2)c1F [Compound 66] | –
> 1 | Nc1ncc2cc(-c3c(F)ccc(NS(=O)(=O)c4cccc(F)c4F)c3F)ccc2n1 [Compound 124] | –
> 1 | Nc1ncc2cc(-c3c(F)ccc(NS(=O)(=O)c4ccc5c(c4)CCC5)c3F)ccc2n1 [Compound 161] | –
– | tunicamycin [reference compound] | induction of CHOP (mCherry) [1]: significant induction of CHOP in both the WT and GCN2 knockout cell lines
0.01 to 0.1 | CNc1ncc2cc(-c3c(F)ccc(NS(=O)(=O)c4cc(Cl)cc(CO)c4Cl)c3F)ccc2n1 [Compound 162] | –
0.01 to 0.1 | Nc1ncc2cc(-c3c(F)ccc(NS(=O)(=O)c4ccc(Cl)cc4C(F)(F)F)c3F)ccc2n1 [Compound 137] | –
< 0.01 | Cc1cc(C)cc(S(=O)(=O)Nc2ccc(F)c(-c3ccc4nc(N)ncc4c3)c2F)c1 [Compound 113] | –
> 1 | Nc1ncc2cc(-c3ccc(F)c(NS(=O)(=O)c4cc(Cl)ccc4Cl)c3F)ccc2n1 [Compound 12] | –
> 1 | Nc1ncc2cc(-c3cc(F)cc(NS(=O)(=O)c4cc(Cl)ccc4Cl)c3)ccc2n1 [Compound 14] | –
0.1 to 1 | COc1ncc(Cl)cc1S(=O)(=O)Nc1ccc(F)c(-c2ccc3nc(N(C)C)ncc3c2)c1F [Compound 155] | –

IC50 [2] [µM] | Compound | other results
– | N[C@H](CO)Cc1c[nH]cn1 [histidinol, L-histidinol, reference compound] | induction of CHOP (mCherry) [1]: induction of CHOP (mCherry) could be observed in the WT cells, but not in the GCN2 knockout cells
< 0.01 | Nc1ncc2cc(-c3c(F)ccc(NS(=O)(=O)c4cccc5cnccc45)c3F)ccc2n1 [Compound 64] | –
< 0.01 | COc1ncc(Cl)cc1S(=O)(=O)Nc1ccc(F)c(-c2ccc3nc(NCCO)ncc3c2)c1F [Compound 46] | –
> 1 | COc1ncc(Cl)cc1S(=O)(=O)Nc1ccc(F)c(-c2ccc3nc(N)ccc3c2)c1F [Compound 20] | –
0.1 to 1 | COc1ccc(S(=O)(=O)Nc2ccc(F)c(-c3ccc4nc(N)ncc4c3)c2F)cc1Cl [Compound 148] | –
< 0.01 | COc1ncc(Cl)cc1S(=O)(=O)Nc1cccc(-c2ccc3nc(N)ncc3c2)c1C [Compound 51] | –
< 0.01 | Nc1ncc2cc(-c3cccc(NS(=O)(=O)c4cc(Cl)ccc4Cl)c3F)ccc2n1 [Compound 13] | –
< 0.01 | O=S(=O)(Nc1ccc(F)c(-c2ccc3nc(N[C@H]4CC[C@H](O)CC4)ncc3c2)c1F)c1cc(Cl)ccc1C(F)(F)F [Compound 164] | –
0.01 to 0.1 | Cc1cc(S(=O)(=O)Nc2ccc(F)c(-c3ccc4nc(N)ncc4c3)c2F)c(C)cc1Cl [Compound 109] | –
> 1 | COc1ncc(Cl)cc1S(=O)(=O)Nc1ccc(F)c(-c2ccc(-c3cnc(N)nc3)nc2)c1F [Compound 4] | IC50 [4]: 0.1 to 1 µM
> 1 | Cc1cc(S(=O)(=O)Nc2ccc(F)c(-c3ccc4nc(N)ncc4c3)c2F)ccc1F [Compound 160] | –
0.01 to 0.1 | COc1ncc(Cl)cc1S(=O)(=O)Nc1ccc(F)c(-c2ccc3nc(NC(=O)C(C)(C)C)ncc3c2)c1F [Compound 105] | –
0.01 to 0.1 | Cc1c(NS(=O)(=O)c2cc(Cl)ccc2Cl)cccc1-c1ccc2nc(N)ncc2c1 [Compound 11] | –
> 1 | CC(C)c1cccc(S(=O)(=O)Nc2ccc(F)c(-c3ccc4nc(N)ncc4c3)c2F)c1 [Compound 141] | –
> 1 | Nc1ncc2cc(-c3c(F)ccc(NS(=O)(=O)c4ccc(F)c(C(F)(F)F)c4)c3F)ccc2n1 [Compound 138] | –
– | O=C(CC1NCCCC1O)Cn1cnc2cc(Br)c(Cl)cc2c1=O (stereo not drawn) [halofuginone, reference compound] | induction of CHOP (mCherry) [1]: induction of CHOP (mCherry) could be observed in the WT cells, but not in the GCN2 knockout cells
